In brackets after ≈: the same amount, converted by molar mass.
How the values were obtained:
[1] = Form A solubility study in FaSSIF-v2 and FeSSIF-v2 at 37° C.; type: physicochemical; conditions: for solubility at 2 h / solubility at 24 h / Final Form: 37° C.; for Final Form: residual solid by XRPD
Experimental: Solubility was evaluated at 2 hr and 24 hr for Form A in FaSSIF-v2 and FeSSIF-v2 at 37° C. Approximately 40 mg of Form A sample was added in 2.0 mL of corresponding bio-medium to form a suspension, followed by shaking at 500 rpm at 37° C. After 2 hr and 24 hr, the supernatants were isolated by centrifugation (7000 rpm for 5 min) followed by filtration through […] PTFE membrane and were tested by HPLC concentration and pH. The residual solids were characterized by XRPD.

[2] = Log D7.4 by shake-flask method (pH 7.4 phosphate buffer and n-octanol); type: physicochemical; conditions: n-octanol/pH 7.4 phosphate buffer
Experimental: (§1) A summary of baseline solid state characterization results of crystalline (R)-5-carbamoylpyridin-3-yl-2-methyl-4-(3-(trifluoromethoxy)benzyl)piperazine-1-carboxylate Form A, including pKa, partition coefficient (log D7.4) measurement and 2-hrs equilibrium solubility in FaSSIF and FeSSIF (version 2) are provided herein. […] Log D7.4 was measured with the solvent system of pH 7.4 phosphate buffer and n-octanol by shake-flask method. Meanwhile, 2-hrs equilibrium solubility of (R)-5-carbamoylpyridin-3-yl-2-methyl-4-(3-(trifluoromethoxy)benzyl)piperazine-1-carboxylate in FaSSIF and FeSSIF (version 2) was measured to be 0.12 and 0.080 mg/mL.

[3] = 2-hrs equilibrium solubility in FaSSIF and FeSSIF (version 2); type: physicochemical; conditions: thermodynamic from solid
Experimental: as §1

[4] = Dynamic vapor sorption (DVS) of Form A; type: physicochemical
Experimental: Dynamic vapor sorption (DVS) was performed on a Surface Measurement Systems DVS Intrinsic. The relative humidity at 25° C. were calibrated against deliquescence point of LiCl, Mg(NO3)2, and KCl. Sample sizes were between 10-20 mg. Gas and flow rate was nitrogen, 200 mL/min; dm/dt: 0.002%/min.

[5] = Interconversion study: competitive slurry of Form A and B; type: physicochemical; conditions: from RT to 50° C.
Experimental: An interconversion study of crystal forms was performed. To understand the thermodynamic stability relationship between Form A and B, competitive slurry experiments were performed at RT and 50° C. in water and toluene. Prior to the study, Form A was used to saturate the corresponding solvent before it was filtered to obtain a near-saturated solution. Equal amounts of Form A and B samples were weighed and then mixed with the prepared near-saturated solution to form a new suspension, which was stirred magnetically (˜1000 rpm) at RT and 50° C.

[6] = Competitive slurry study of forms A to E in water; type: physicochemical; conditions: room temperature, 7 days
Experimental: A competitive slurry study of all known forms A to E was performed in water at room temperature to understand the thermodynamic stability relationship among these forms. Form A was used to saturate the water before it was filtered to obtain a near-saturated solution. Equal amounts of each form (A to E) were weighed and then mixed with the prepared near-saturated solution to form a new suspension, which was stirred magnetically (˜1000 rpm) at room temperature for 7 days.

[7] = physchem; conditions: thermodynamic from solid

C[C@@H]1CN(Cc2cccc(OC(F)(F)F)c2)CCN1C(=O)Oc1cncc(C(N)=O)c1 [Form A, (R)-5-carbamoylpyridin-3-yl-2-methyl-4-(3-(trifluoromethoxy)benzyl)piperazine-1-carboxylate]
solubility at 2 h ([1]; FaSSIF-v2, thermodynamic from solid, FaSSIF (pH 6.5), 2 hr, final pH 6.5): 63 µg/mL (≈ 0.144 mM)
solubility at 24 h ([1]; FaSSIF-v2, thermodynamic from solid, FaSSIF (pH 6.5), 24 hr, final pH 6.6): 63 µg/mL (≈ 0.144 mM)
Form change after solubility evaluation (XRPD patterns) ([1]; FaSSIF-v2 and FeSSIF-v2, 37° C., 2 hr and 24 hr): no form change was observed
solubility at 2 h ([1]; FeSSIF-v2, thermodynamic from solid, FeSSIF (pH 5.8), 2 hr, final pH 5.9): 1000 µg/mL (≈ 2.28 mM)
solubility at 24 h ([1]; FeSSIF-v2, thermodynamic from solid, FeSSIF (pH 5.8), 24 hr, final pH 6.0): 1100 µg/mL (≈ 2.51 mM)
Final Form ([1]; FaSSIF (pH 6.5), 2 hr): Form A
Final Form ([1]; FaSSIF (pH 6.5), 24 hr): Form A
Final Form ([1]; FeSSIF (pH 5.8), 2 hr): Form A
Final Form ([1]; FeSSIF (pH 5.8), 24 hr): Form A
logD [2]: 3.76
solubility thermodynamic at 2 h ([3]; FaSSIF (version 2), fassif): 120 µg/mL (≈ 0.274 mM)
solubility thermodynamic at 2 h ([3]; FeSSIF (version 2), fessif): 80 µg/mL (≈ 0.182 mM)
Form change after the DVS test (XRPD comparison) ([4]; 25° C., between 0 and 95% RH): no form change was observed
Water uptake (DVS) ([4]; 25° C./80% RH): 0.05%
Thermodynamic stability relationship between Form A and B [5]: thermodynamically more stable than Form B
Thermodynamic stability relationship among forms A to E [6]: thermodynamically the most stable form
solubility ([7]; organic solvent or mixture, Approximate solubility, 1,4-dioxane, RT): > 22000 µg/mL
solubility ([7]; organic solvent or mixture, Approximate solubility, 2-MeTHF, RT): > 23000 µg/mL
solubility ([7]; organic solvent or mixture, Approximate solubility, ACN, RT): > 24000 µg/mL
solubility ([7]; organic solvent or mixture, Approximate solubility, Acetone, RT): > 17000 µg/mL
solubility ([7]; organic solvent or mixture, Approximate solubility, Anisole, RT): > 20000 µg/mL
solubility ([7]; organic solvent or mixture, Approximate solubility, CHCl3, RT): > 19000 µg/mL
solubility ([7]; organic solvent or mixture, Approximate solubility, DCM, RT): > 19000 µg/mL
solubility ([7]; organic solvent or mixture, Approximate solubility, DMSO, RT): > 20000 µg/mL
solubility ([7]; organic solvent or mixture, Approximate solubility, EtOAc, RT): > 26000 µg/mL
solubility ([7]; organic solvent or mixture, Approximate solubility, EtOH, RT): > 17000 µg/mL
solubility ([7]; organic solvent or mixture, Approximate solubility, IPA, RT): > 24000 µg/mL
solubility ([7]; organic solvent or mixture, Approximate solubility, IPAC, RT): > 21000 µg/mL
solubility ([7]; organic solvent or mixture, Approximate solubility, MIBK, RT): > 24000 µg/mL
solubility ([7]; organic solvent or mixture, Approximate solubility, MTBE, RT): 7700 to 11500 µg/mL (≈ 17.6 to 26.2 mM)
solubility ([7]; organic solvent or mixture, Approximate solubility, MeOH, RT): > 23000 µg/mL
solubility ([7]; organic solvent or mixture, Approximate solubility, NMP, RT): > 21000 µg/mL
solubility ([7]; organic solvent or mixture, Approximate solubility, THF, RT): > 26000 µg/mL
solubility ([7]; organic solvent or mixture, Approximate solubility, n-heptane, RT): < 900 µg/mL
solubility ([7]; organic solvent or mixture, Approximate solubility, toluene, RT): 4500 to 6000 µg/mL (≈ 10.3 to 13.7 mM)
solubility ([7]; water, Approximate solubility, H2O, RT): > 1000 µg/mL
